Holding throughout (assay type): cell-based
Experiment [1] has as its system Propionibacterium acnes ATCC 11827. Briefly: Minimum inhibitory concentration (MIC) assay, Propionibacterium acnes ATCC 11827. The following applies: Cutibacterium acnes, ATCC11827; anaerobic culture 35+/-2°C, 48 hours; read with naked eyes. The procedure:
(§1) On the day of the experiment, the compound in the flask was dissolved in 100% DMSO until the concentration of mother liquor was 0.4 mg/mL. If the mother liquor was not used on the same day, it was stored at −80° C. for future use. The compound mother liquor and standard antibiotics were subjected to 2-fold gradient dilution with corresponding solvents on a 96-microwell plate (V-bottom) to obtain 100× working solutions (Well 1 to Well 7) in sequence. Among them, the concentrations of the compound were 400 μg/mL, 200 μg/mL, 100 μg/mL, 50 μg/mL, 25 μg/mL, 12.5 μg/mL, 6.25 μg/mL, and 3.125 μg/mL. 100% DMSO was used as growth control (Well 8). As such, the compound motherplate was obtained. Two days before the experiment, anaerobic bacteria (Propionibacterium acnes) stored in a cryogenic tube at −80° C. were scribed on an MBA (Brucella Agar+5% (v/v) defibrillated sheep blood+[…] Hemin+1 μg/mLVitamin K1) plate. The anaerobic bacteria were placed in a 35+/−2° C. anaerobic incubator for 42-48 hours of cultivation. On the day of the experiment, the plate was taken out, clones were picked from the plate and suspended in physiological saline. Then, the turbidity of the bacterial suspension (containing 1.0-2.0×10^8 CFU/mL) was adjusted to OD600=0.2 by a turbidity meter. Then, the adjusted bacterial suspension was diluted to an appropriate concentration with the assay culture medium: about 5×10^5 CFU/mL for aerobic bacteria, and about 1×10^6 CFU/mL for anaerobic bacteria. As such, the inoculating solution was obtained. […] Therefore, the final assay concentrations of the compound were 4 μg/mL, 2 μg/mL, 1 μg/mL, 0.5 μg/mL, 0.25 μg/mL, 0.125 μg/mL, 0.06 μg/mL and 0.03 μg/mL. The total volume of each well on the assay plate was 200 μL: containing 1% DMSO, about 5×10^5 CFU/mL of aerobic bacteria and about 1×10^6 CFU/mL of anaerobic bacteria. All assay plates for aerobic bacteria were aerobically cultured at 35+/−2° C. for 16 to 20 hours, and all assay plates for anaerobic bacteria were anaerobically cultured in an anaerobic incubator at 35+/−2° C. for 48 hours. Note: for anaerobic bacteria, both the preparation of bacterial solution in step 2 and the inoculation of bacterial solution in step 3 were operated in an anaerobic workstation.

In experiment [2] the test system is Propionibacterium acnes ATCC 6919. Briefly: Minimum inhibitory concentration (MIC) assay, Propionibacterium acnes ATCC 6919. To be noted: Cutibacterium acnes, ATCC6919; anaerobic culture 35+/-2°C, 48 hours; read with naked eyes. The method, then: as §1
Experiment [3] relates to Staphylococcus epidermidis ATCC 35983. Briefly: Minimum inhibitory concentration (MIC) assay, Staphylococcus epidermidis ATCC 35983. The following applies: ATCC35983, aerobic culture 35+/-2°C, 16 to 20 hours, read with naked eyes. The procedure: (§2) On the day of the experiment, the compound in the flask was dissolved in 100% DMSO until the concentration of mother liquor was 0.4 mg/mL. If the mother liquor was not used on the same day, it was stored at −80° C. for future use.
(§3) The compound mother liquor and standard antibiotics were subjected to 2-fold gradient dilution with corresponding solvents on a 96-microwell plate (V-bottom) to obtain 100× working solutions (Well 1 to Well 7) in sequence. Among them, the concentrations of the compound were 400 μg/mL, 200 μg/mL, 100 μg/mL, 50 μg/mL, 25 μg/mL, 12.5 μg/mL, 6.25 μg/mL, and 3.125 μg/mL. 100% DMSO was used as growth control (Well 8). As such, the compound motherplate was obtained.
(§4) One day before the experiment, aerobic bacteria (Staphylococcus epidermidis) stored in a cryogenic tube at −80° C. were scribed on an MHA (Cation-adjusted Mueller-Hinton agar) plate. The aerobic bacteria were placed in a 35+/−2° C. incubator for 18-24 hours of aerobic cultivation.
(§5) On the day of the experiment, the plate was taken out, clones were picked from the plate and suspended in physiological saline. Then, the turbidity of the bacterial suspension (containing 1.0-2.0×10^8 CFU/mL) was adjusted to OD600=0.2 by a turbidity meter. Then, the adjusted bacterial suspension was diluted to an appropriate concentration with the assay culture medium: about 5×10^5 CFU/mL for aerobic bacteria, and about 1×10^6 CFU/mL for anaerobic bacteria. As such, the inoculating solution was obtained.
(§6) 2 μl of 2-fold series dilution of 100× high-concentration working solution was transferred from a compound mother plate (prepared in step 1) to a round-bottom 96-well plate, and then 198 μL of bacterial inoculating solution (prepared in step 2) was added to each well to obtain an MIC assay plate. Therefore, the final assay concentrations of the compound were 4 μg/mL, 2 μg/mL, 1 μg/mL, 0.5 μg/mL, 0.25 μg/mL, 0.125 μg/mL, 0.06 μg/mL and 0.03 μg/mL. The total volume of each well on the assay plate was 200 μL: containing 1% DMSO, about 5×10^5 CFU/mL of aerobic bacteria and about 1×10^6 CFU/mL of anaerobic bacteria.
(§7) All assay plates for aerobic bacteria were aerobically cultured at 35+/−2° C. for 16 to 20 hours, and all assay plates for anaerobic bacteria were anaerobically cultured in an anaerobic incubator at 35+/−2° C. for 48 hours.

Experiment [4] deals with Staphylococcus epidermidis ATCC 35984. Put plainly: Minimum inhibitory concentration (MIC) assay, Staphylococcus epidermidis ATCC 35984. To be noted: ATCC35984, aerobic culture 35+/-2°C, 16 to 20 hours, read with naked eyes. The procedure:
as §2, §3, §4, §5, §6, §7

In experiment [5] the test system is Staphylococcus epidermidis ATCC 12228. Put plainly: Minimum inhibitory concentration (MIC) assay, Staphylococcus epidermidis ATCC 12228. The following applies: ATCC12228, aerobic culture 35+/-2°C, 16 to 20 hours, read with naked eyes. The procedure: as §2, §3, §4, §5, §6, §7

SMILES strings stand for the structures. ≈ marks a conversion by molar mass, not a printed value. Counter-ions that a name gives are not always drawn.

As usually defined, the MIC is the smallest concentration in the dilution series that meets the test's criterion for growth inhibition. A low value points to inhibition by little substance. Consider `CNc1cc2c(cn1)-c1ccc3c(=O)c(C(=O)O)cn(C4CC4)c3c1COC2` [Trifluoroacetate of Compound 2], for which the minimal inhibitory concentration (MIC) was found to be 0.25 µg/mL in experiment [1]; 0.125 µg/mL in experiment [2]; 0.06 µg/mL in experiment [3]; 0.06 µg/mL in experiment [4]; 0.06 µg/mL in experiment [5].
For `Nc1cc2c(cn1)-c1ccc3c(=O)c(C(=O)O)cn(C4CC4)c3c1COC2` [Trifluoroacetate of Compound 7], the MIC was found to be 0.25 µg/mL in experiment [1]; 0.125 µg/mL in experiment [2]; 0.03 µg/mL in experiment [3]; 0.03 µg/mL in experiment [4]; 0.06 µg/mL in experiment [5].
For `O=C(O)c1cn(C2CC2)c2c3c(ccc2c1=O)-c1cnccc1COC3` [Trifluoroacetate of Compound 11], the minimum inhibitory concentration (MIC) in experiment [1] amounted to 0.25 µg/mL; in experiment [2], 0.5 µg/mL; in experiment [3] it was 0.06 µg/mL; in experiment [4], 0.125 µg/mL; in experiment [5], 0.03 µg/mL.
On the same counts, the results for `CN(CC(F)F)c1cc2c(cn1)-c1ccc3c(=O)c(C(=O)O)cn(C4CC4)c3c1COC2` [Trifluoroacetate of Compound 23] are 0.25 µg/mL, 0.12 µg/mL, 0.12 µg/mL, no more than 0.06 µg/mL and 0.12 µg/mL.
For `O=C(O)c1cn(C2CC2)c2c3c(ccc2c1=O)-c1cnc(NCCO)cc1COC3` [Trifluoroacetate of Compound 12], the MIC in experiment [1] was determined as 0.125 µg/mL; in experiment [2] it was 0.06 µg/mL; in experiment [3], 0.06 µg/mL; in experiment [4] it was 0.06 µg/mL; in experiment [5], 0.06 µg/mL.
In the case of `O=C(O)c1cn(C2CC2)c2c3c(ccc2c1=O)-c1cnc(NCC2CCC2)cc1COC3` [Trifluoroacetate of Compound 16], the MIC was found to be 0.5 µg/mL in experiment [1]; 0.5 µg/mL in experiment [2]; 0.06 µg/mL in experiment [3]; 0.06 µg/mL in experiment [4]; 0.06 µg/mL in experiment [5].
For the molecule `COc1cc2c(cn1)-c1ccc3c(=O)c(C(=O)O)cn(C4CC4)c3c1COC2` [Compound 5], the MIC in experiment [1], in experiment [2], in experiment [3], in experiment [4] and in experiment [5] was 0.06 µg/mL (≈ 0.159 µM) each time.
Turning to `N=C(N)Nc1cc2c(cn1)-c1ccc3c(=O)c(C(=O)O)cn(C4CC4)c3c1COC2` [Trifluoroacetate of Compound 27], the minimum inhibitory concentration (MIC) stood at 1 µg/mL in experiment [1]; 1 µg/mL in experiment [2]; 0.5 µg/mL in experiment [3]; 0.5 µg/mL in experiment [4]; 0.5 µg/mL in experiment [5].
Consider `Cc1cc2c(cn1)-c1ccc3c(=O)c(C(=O)O)cn(C4CC4)c3c1COC2` [Sodium salt of Compound 10], for which the MIC is 0.125 µg/mL in experiment [1]; 0.125 µg/mL in experiment [2]; 0.06 µg/mL in experiment [3]; no more than 0.03 µg/mL in experiment [4]; 0.06 µg/mL in experiment [5].
Regarding `O=C(O)c1cn(C2CC2)c2c3c(ccc2c1=O)-c1cnc(NCc2ccccc2)cc1COC3` [Trifluoroacetate of Compound 15], the MIC in experiment [1] was determined as 0.5 µg/mL; in experiment [2], 0.125 µg/mL; in experiment [3] it was 0.06 µg/mL; in experiment [4] it was 0.06 µg/mL; in experiment [5] it was 0.06 µg/mL.
Consider `NCCNc1cc2c(cn1)-c1ccc3c(=O)c(C(=O)O)cn(C4CC4)c3c1COC2` [Trifluoroacetate of Compound 19], for which the MIC in experiment [1] worked out at 2 µg/mL; in experiment [2], 2 µg/mL; in experiment [3] it was 1 µg/mL; in experiment [4], 1 µg/mL; in experiment [5], 2 µg/mL.
With `O=C(O)c1cn(C2CC2)c2c3c(ccc2c1=O)-c1cc2nc[nH]c2cc1COC3` [Compound 3], the minimal inhibitory concentration (MIC) in experiment [1], in experiment [2], in experiment [3], in experiment [4] and in experiment [5] was 0.06 µg/mL (≈ 0.155 µM) throughout.
Turning to `N=C(N)NOCCOCCNc1cc2c(cn1)-c1ccc3c(=O)c(C(=O)O)cn(C4CC4)c3c1COC2` [Hydrochloride of Compound 29], the MIC in experiment [1] worked out at 1 µg/mL; in experiment [2], 2 µg/mL; in experiment [3] it was 2 µg/mL; in experiment [4], 1 µg/mL; in experiment [5], 2 µg/mL.
Take `CNc1ccc2c(n1)COCc1c-2ccc2c(=O)c(C(=O)O)cn(C3CC3)c12` [Hydrochloride of Compound 1]: the MIC in experiment [1] was 0.25 µg/mL; in experiment [2] it was 0.25 µg/mL; in experiment [3], 0.25 µg/mL; in experiment [4] it was 0.5 µg/mL; in experiment [5] it was 0.5 µg/mL.
Consider `O=C(O)c1cn(C2CC2)c2c3c(ccc2c1=O)-c1c[nH]c(=O)cc1COC3` [Compound 21], for which the minimal inhibitory concentration (MIC) in experiment [1] was found to be 1 µg/mL (≈ 2.74 µM); in experiment [2] it was 0.5 µg/mL (≈ 1.37 µM); in experiment [3], 1 µg/mL (≈ 2.74 µM); in experiment [4], 2 µg/mL (≈ 5.49 µM); in experiment [5] it was 1 µg/mL (≈ 2.74 µM).
On to `CNc1cc2c(cn1)-c1ccc3c(=O)c(C(=O)O)cn(C4CC4)c3c1CCC2` [Trifluoroacetate of Compound 20], for which the minimal inhibitory concentration (MIC) in experiment [1] came out at 2 µg/mL; in experiment [2] it was 1 µg/mL; in experiment [3], 0.125 µg/mL; in experiment [4] it was 0.125 µg/mL; in experiment [5], 0.125 µg/mL.
Take `CCCNc1cc2c(cn1)-c1ccc3c(=O)c(C(=O)O)cn(C4CC4)c3c1COC2` [Trifluoroacetate of Compound 13]: the minimal inhibitory concentration (MIC) in experiment [1] amounted to 0.25 µg/mL; in experiment [2], 0.125 µg/mL; in experiment [3], 0.06 µg/mL; in experiment [4], 0.06 µg/mL; in experiment [5] it was 0.06 µg/mL.
For the molecule `CNc1cc2c(cn1)-c1ccc3c(=O)c(C(=O)O)cn(C4CC4)c3c1C=CC2` [Compound 4], the minimum inhibitory concentration (MIC) amounted to 0.5 µg/mL (≈ 1.34 µM) in experiment [1]; 0.5 µg/mL (≈ 1.34 µM) in experiment [2]; 0.125 µg/mL (≈ 0.335 µM) in experiment [3]; 0.06 µg/mL (≈ 0.161 µM) in experiment [4]; 0.125 µg/mL (≈ 0.335 µM) in experiment [5].
As for `O=C(O)c1cn(C2CC2)c2c3c(ccc2c1=O)-c1cnc(NC[C@H](O)CO)cc1COC3` [Trifluoroacetate of Compound 22], the MIC in experiment [1] stood at 0.25 µg/mL; in experiment [2], 0.25 µg/mL; in experiment [3], 0.25 µg/mL; in experiment [4] it was 0.12 µg/mL; in experiment [5], 0.25 µg/mL.
`CCNc1cc2c(cn1)-c1ccc3c(=O)c(C(=O)O)cn(C4CC4)c3c1COC2` [Trifluoroacetate of Compound 14]: the MIC was 0.125 µg/mL in experiment [1]; 0.06 µg/mL in experiment [2]; 0.06 µg/mL in experiment [3]; 0.03 µg/mL in experiment [4]; 0.06 µg/mL in experiment [5].

The values above are taken from US20250042912A1, “NOVEL NON-FLUORINATED QUINOLONE COMPOUND AND USE THEREOF” (priority 2021, published 2025).
